Legend:
chick embryo skin CRABP = experiment: CRABP competition by sucrose density gradient sedimentation, 100-fold excess of retinoid; assay type: binding; settings: 100-fold molar excess of test compound, 300 pmol [3H] retinoic acid, FIG. 1
Experimental: (§1) Aliquots (2 mg protein) of chick skin extracts were incubated with 300 pmoles of [^3 H] retinoic acid in the presence or absence of 100-fold molar excesses of the test compounds. The 2S CRABP peaks were determined from the radioactivity profiles obtained after sedimentation through 5 to 20% sucrose density gradients at 180,000×g for 18 hours (Sani et al., supra). […] Free radioactive retinoid was removed by absorption on dextran-coated charcoal. The I50 values of the test compounds were derived from the semilog plots of their molar concentrations versus the specifically bound [^3 H] retinoic acid to CRABP at the different concentrations of the test retinoids.

[1] = target: cellular retinoic acid binding protein (CRABP) from chick embryo skin; experiment: CRABP binding assay, I50 (dextran-coated charcoal); settings: 50% inhibition of binding of 100 pmoles [3H] retinoic acid to CRABP, chick embryo skin extract (1 mg protein); X=CO2H
Experimental: A standard in vitro cellular retinoic acid binding protein (CRABP) assay was also conducted on the retinoids. The CRABP binding study measured the ability of retinoids to compete for the retinoic acid binding site on CRABP, also a good indicator of retinoid potency as a chemopreventive agent.
as §1

[2] = tested on: ornithine decarboxylase (ODC) induced by TPA in mouse epidermis; experiment: In vivo ODC assay: inhibition of TPA-induced ornithine decarboxylase activity in mouse epidermis; settings: TPA-induced ODC activity in epidermis of CD-1 mice, single topical application of retinoid 30 to 60 min before TPA, skins collected 5 h after TPA; values normalized to TPA control of 10; X=CO2H
Experimental: An in vivo ODC assay was conducted using four configurational isomers of retinoid 7 with X=CO2 H to study their bioactivities with respect to prevention of tumors. The ODC assay measured the inhibition by retinoids of the induction of ornithine decarboxylase in mouse epidermis by phorbol ester (TPA), an indicator of retinoid potency as a chemopreventive agent.
A single application of TPA was made to the shaved backs of CD-1 mice 30 to 60 minutes after a single application of the test retinoid. Five hours after the application of TPA, the exposed skins from the back of the three animals in each group were collected, and the epidermal extracts prepared from each animal were pooled and assayed. In order to improve the counting efficiency of radio-labeled product formed in the assay, the specific activity of ^14 C-ornithine was increased five-fold; the assay was terminated by the addition of citric acid at 45 minutes to ensure linear kinetics.

mouse skin papilloma = experiment: Mouse papilloma assay (tumor formation after DMBA initiation); assay type: in vivo; settings: initiation with DMBA, X=CO2H

SMILES | inhibition of [3H] retinoic acid-binding to CRABP (relative binding affinity as compared to retinoic acid) (chick embryo skin CRABP) | IC50 [1] | ODC Assay (nmol CO2/30 min./mg protein) [2] | tumor production, % of controls (mouse skin papilloma)
CC1=C(/C=C/C(C)=C/C=C/C(C)=C/C(=O)O)C(C)(C)CCC1 [all-E retinoic acid, reference compound] | 100% | 900 nM | 0.5 nmol CO2/30 min./mg protein | 11 % of controls
CC1=C(C(C)C)/C(=C/C(C)=C\C=C\C(C)=C\C(=O)O)CCC1 [(9Z)-7] | 0% | 2800 nM | > 100 nmol CO2/30 min./mg protein | –

Further lines, with some results ahead:

inhibition of [3H] retinoic acid-binding to CRABP (relative binding affinity as compared to retinoic acid) (chick embryo skin CRABP) | IC50 [1] | SMILES | ODC Assay (nmol CO2/30 min./mg protein) [2] | tumor production, % of controls (mouse skin papilloma)
0% | 4900 nM | CC1=C(C(C)C)/C(=C/C(C)=C\C=C\C(C)=C/C(=O)O)CCC1 [(9Z,13Z)-7] | > 100 nmol CO2/30 min./mg protein | –
70% | 500 nM | CC1=C(C(C)C)/C(=C/C(C)=C/C=C/C(C)=C\C(=O)O)CCC1 [(13Z)-7] | 1.0 nmol CO2/30 min./mg protein | –
100% | 400 nM | CC1=C(C(C)C)/C(=C/C(C)=C/C=C/C(C)=C/C(=O)O)CCC1 [(all E)-7] | 0.5 nmol CO2/30 min./mg protein | 20 % of controls

From patent US5094783A, “Retinoid compounds” (UAB Research Foundation, priority 1990, dated 1992)
